Measured values taken from patent publication US8362000B2, “Azetidinyl diamides as monoacylglycerol lipase inhibitors” (Janssen Pharmaceutica NV, priority 2009, dated 2013).
Residue numbers refer to the chain shown, from its start. Where two headings read alike, the source gives them in different places.

Tests used:
MGL = target: T1, MGL (Rattus norvegicus, UniProt Q8R431); experiment: 2-AG accumulation assay in rat brain homogenate; assay type: biochemical; settings: rat brain homogenate; compound 1 μM; 2-AG accumulation as percent of vehicle; read-out: Rat Brain 2AG % VehCntrl (%) @ 1 μM
T1 construct: one g rat brain was homogenized using a Polytron homogenizer; from tissue; host or cells: rat brain homogenate
T1 sequence (Q8R431 1-303): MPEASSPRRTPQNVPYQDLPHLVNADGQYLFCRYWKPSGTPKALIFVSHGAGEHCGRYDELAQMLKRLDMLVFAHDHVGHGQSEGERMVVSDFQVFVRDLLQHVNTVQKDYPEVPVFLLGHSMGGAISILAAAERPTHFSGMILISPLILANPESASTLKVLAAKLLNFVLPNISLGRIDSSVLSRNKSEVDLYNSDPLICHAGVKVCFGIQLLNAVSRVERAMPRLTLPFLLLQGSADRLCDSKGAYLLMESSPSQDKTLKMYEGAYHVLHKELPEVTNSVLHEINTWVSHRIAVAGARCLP

[1] = target: T2, purified wild type MGL (wt-MGLL 6H-11-313) (Homo sapiens, UniProt Q99685)
T2 sequence (Q99685 1-303): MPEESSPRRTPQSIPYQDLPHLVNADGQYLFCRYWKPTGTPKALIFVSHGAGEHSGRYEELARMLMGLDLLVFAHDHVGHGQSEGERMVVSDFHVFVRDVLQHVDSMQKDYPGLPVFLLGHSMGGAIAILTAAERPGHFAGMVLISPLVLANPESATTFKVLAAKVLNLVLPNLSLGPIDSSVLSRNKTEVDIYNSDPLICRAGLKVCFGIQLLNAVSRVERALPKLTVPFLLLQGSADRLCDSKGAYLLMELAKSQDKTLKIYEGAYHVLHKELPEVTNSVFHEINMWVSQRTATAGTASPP

mutant MGL = target: T3, mutant MGL (Homo sapiens, UniProt Q99685, L169S/L176S); experiment: MGL ThermoFluor assay - mutant; assay type: binding
T3 sequence (Q99685 1-303 L169S/L176S): T2 sequence (Q99685 1-303) with L169S, L176S
Method: The ThermoFluor (TF) assay is a 384-well plate-based binding assay that measures thermal stability of proteins^1,2. […] TF dye used in all experiments was 1,8-ANS (Invitrogen: A-47). Final TF assay conditions used for MGL studies were 0.07 mg/ml of mutant MGL, 100 μM ANS, 200 mM NaCl, 0.001% Tween-20 in 50 mM PIPES (pH=7.0).
Screening compound plates contained 100% DMSO compound solutions at a single concentration. […] Columns 12 and 24 were used as DMSO reference and contained no compound. […] Following compound dispension, protein and dye solutions were added to achieve the final assay volume of 3 μL.
Bar-coded assay plates were robotically loaded onto a thermostatically controlled PCR-type thermal block and then heated from 40 to 90° C. degrees at a ramp-rate of 1° C./min for all experiments. Fluorescence was measured by continuous illumination with UV light (Hamamatsu LC6), supplied via fiber optics and filtered through a band-pass filter (380-400 nm; >60D cutoff). Fluorescence emission of the entire 384-well plate was detected by measuring light intensity using a CCD camera (Sensys, Roper Scientific) filtered to detect 500±25 nm, resulting in simultaneous and independent readings of all 384 wells. A single image with 20-sec exposure time was collected at each temperature, and the sum of the pixel intensity in a given area of the assay plate was recorded vs temperature and fit to standard equations to yield the Tm^1. • 1.
For some experiments, quantitative NMR spectroscopy (qNMR) was used to measure concentration of the initial 100% DMSO compound solutions and, using the same fitting method, qKd values were determined

[2] = ThermoFluor concentration-response, read-out: MGL mutant ThermoFluor Kd
[3] = compound concentration measured by qNMR, read-out: MGL mutant ThermoFluor qKd (using qNMR conc.)
[4] = ThermoFluor thermal stability binding assay, read-out: MGL mutant ThermoFluor Kd
[5] = ThermoFluor, compound concentration measured by qNMR, read-out: MGL mutant ThermoFluor qKd (using qNMR conc.)
[6] = ThermoFluor, compound concentration measured by qNMR, read-out: MGL mutant ThermoFluor qKd (μM) (using qNMR conc.)

Row | SMILES | 2-AG accumulation, % of vehicle control at 1 µM (MGL) [%] | IC50 [1] [µM] | Kd (mutant MGL; [2]) [µM] | Kd (mutant MGL; [3]) [µM] | Kd (mutant MGL; [4]) [µM] | Kd (mutant MGL; [5]) [µM] | Kd (mutant MGL; [6]) [µM]
1 | CCCn1ccc2cc(C(=O)N3CC(N4CCN(C(=O)c5nccs5)CC4)C3)ccc21 [Cpd 687] | 698 | 0.044 | 0.004 |  |  |  | 
2 | O=C(c1ccc(-c2ccccc2)cc1)N1CCN(C2CN(C(=O)c3ncco3)C2)CC1 [Cpd 1283, 1-(Biphenyl-4-ylcarbonyl)-4-[1-(1,3-oxazol-2-ylcarbonyl)azetidin-3-yl]piperazine] | 62 | 2.17 | 0.523 |  |  |  | 
3 | O=C(c1ccns1)N1CC(N2CCN(C(=O)c3cc4cc(C(F)(F)F)ccc4s3)CC2)C1 [Cpd 703, 1-[1-(Isothiazol-5-ylcarbonyl)azetidin-3-yl]-4-{[5-(trifluoromethyl)-1-benzothiophen-2-yl]carbonyl}piperazine] | 346 | 0.088 | 0.05 |  |  |  | 
4 | Cn1cc(Cc2ccc(F)cc2)c2ccc(C(=O)N3CC(N4CCN(C(=O)c5cscn5)CC4)C3)cc21 [Cpd 1027] | 785 | 0.014 |  | 0.012 |  |  | 
5 | O=C(c1ccc2c(ccn2-c2ccc(C(F)(F)F)cc2)c1)N1CCN(C2CN(C(=O)c3ccc[nH]3)C2)CC1 [Cpd 1120, 5-({4-[1-(1H-Pyrrol-2-ylcarbonyl)azetidin-3-yl]piperazin-1-yl}carbonyl)-1-[4-(trifluoromethyl)phenyl]-1H-indole] | 867 | 0.018 |  |  |  | 0.02 | 
6 | COc1cc(-n2ccc3cc(C(=O)N4CC(N5CCN(C(=O)c6nccs6)CC5)C4)ccc32)ccn1 [Cpd 1107, 1-(2-Methoxypyridin-4-yl)-5-({3-[4-(1,3-thiazol-2-ylcarbonyl)piperazin-1-yl]azetidin-1-yl}carbonyl)-1H-indole] | 838 | 0.014 |  |  |  | 0.003 | 
7 | O=C(c1cc(-c2ccccc2)cc(C(F)(F)F)c1)N1CC(N2CCN(C(=O)c3nccs3)CC2)C1 [Cpd 1144, 1-(1,3-Thiazol-2-ylcarbonyl)-4-(1-{[5-(trifluoromethyl)biphenyl-3-yl]carbonyl}azetidin-3-yl)piperazine] | 212 | 0.031 | 0.181 |  |  |  | 
8 | O=C(c1ccccc1)N1CCN(C2CN(C(=O)c3ccc(Sc4cccc(C(F)(F)F)c4)cc3)C2)CC1 [Cpd 430] | 114 | 0.0236 | 0.0667 |  |  |  | 
9 | O=C(c1nccs1)N1CCN(C2CN(C(=O)c3cccc4oc(-c5ccccc5)nc34)C2)CC1 [Cpd 1190] | 126 | 0.099 |  |  | 0.008 |  | 
10 | CCCCCCCCCCCCCCCC(=O)N1CC(N2CCN(C(=O)c3nccs3)CC2)C1 [Cpd 636] | 296 | 0.021 | 0.119 |  |  |  | 
11 | O=C(c1ccccc1)N1CCN(C2CN(C(=O)c3ccc4c(-c5ccc(C(F)(F)F)cc5)c[nH]c4c3)C2)CC1 [Cpd 634] | 301 | 0.057 | 0.054 |  |  |  | 
12 | Cc1c(C(=O)N2CC(N3CCN(C(=O)c4nccs4)CC3)C2)[nH]c2ccc(Cl)cc12 [Cpd 688, 5-Chloro-3-methyl-2-({3-[4-(1,3-thiazol-2-ylcarbonyl)piperazin-1-yl]azetidin-1-yl}carbonyl)-1H-indole] | 373 | 0.044 | 0.046 |  |  |  | 
13 | O=C(c1cc(F)cc(-c2ccccc2)c1)N1CC(N2CCN(C(=O)c3nccs3)CC2)C1 [Cpd 1104, 1-{1-[(5-Fluorobiphenyl-3-yl)carbonyl]azetidin-3-yl}-4-(1,3-thiazol-2-ylcarbonyl)piperazine] | 334 | 0.013 | 0.199 |  |  |  | 
14 | CC(C)(C)c1ccc(C(=O)N2CC(N3CCN(C(=O)c4nccs4)CC3)C2)cc1 [Cpd 672] | 268 | 0.017 | 0.016 |  |  |  | 
15 | O=C(c1ccccc1)N1CCN(C2CN(C(=O)c3ccc4c(ccn4-c4ccc(OC(F)(F)F)cc4)c3)C2)CC1 [Cpd 573] | 277 | 0.046 |  |  |  |  | 0.1
16 | O=C(Nc1ccc(C(=O)N2CC(N3CCN(C(=O)c4nccs4)CC3)C2)cc1)c1cc(F)ccc1Cl [Cpd 702] | 848 | 0.303 |  |  |  | 0.207 | 

Compounds with a lower IC50 [1], results first:

Row | 2-AG accumulation, % of vehicle control at 1 µM (MGL) [%] | IC50 [1] [µM] | Kd (mutant MGL; [2]) [µM] | Kd (mutant MGL; [3]) [µM] | Kd (mutant MGL; [4]) [µM] | Kd (mutant MGL; [5]) [µM] | Kd (mutant MGL; [6]) [µM] | SMILES
17 | 994 | < 0.005 | 0.003 |  |  |  |  | O=C(c1ccc(-c2ccc(C(F)(F)F)s2)cc1)N1CC(N2CCN(C(=O)c3nccs3)CC2)C1 [Cpd 1361, 1-(1,3-Thiazol-2-ylcarbonyl)-4-[1-({4-[5-(trifluoromethyl)thiophen-2-yl]phenyl}carbonyl)azetidin-3-yl]piperazine]
18 | 847 | < 0.005 | 0.006 |  |  |  |  | O=C(c1ccc2c(c1)CCN2Cc1cccc(C(F)(F)F)c1)N1CC(N2CCN(C(=O)c3nccs3)CC2)C1 [Cpd 881]
19 | 508 | 0.012 |  | 0.02 |  |  |  | O=C(c1ccc2c(c1)CCN2c1ccc(F)cc1)N1CC(N2CCN(C(=O)c3ccc[nH]3)CC2)C1 [Cpd 1099]
20 | 386 | < 0.005 |  |  | 0.0025 |  |  | COc1cc(C(=O)N2CC(N3CCN(C(=O)c4cscn4)CC3)C2)ccc1-c1ccc(Cl)c(C(F)(F)F)c1 [Cpd 262, 1-(1-{[4′-Chloro-2-methoxy-3′-(trifluoromethyl)biphenyl-4-yl]carbonyl}azetidin-3-yl)-4-(1,3-thiazol-4-ylcarbonyl)piperazine]
21 | 359 | 0.008 | 0.029 |  |  |  |  | CCCc1ccc(C(=O)N2CC(N3CCN(C(=O)c4nccs4)CC3)C2)cc1 [Cpd 655]
22 | 484 | 0.011 | 0.011 |  |  |  |  | O=C(c1nccs1)N1CCN(C2CN(C(=O)c3sc4cc(-c5ccccc5)ccc4c3C(F)(F)F)C2)CC1 [Cpd 1095, 1-(1-{[6-Phenyl-3-(trifluoromethyl)-1-benzothiophen-2-yl]carbonyl}azetidin-3-yl)-4-(1,3-thiazol-2-ylcarbonyl)piperazine]
23 | 451 | 0.007 |  |  |  | 0.1 |  | O=C(c1ccc2c(ccn2-c2ccc(C(F)(F)F)nc2)c1)N1CC(N2CCN(C(=O)c3ccc[nH]3)CC2)C1 [Cpd 1062, 5-({3-[4-(1H-Pyrrol-2-ylcarbonyl)piperazin-1-yl]azetidin-1-yl}carbonyl)-1-[6-(trifluoromethyl)pyridin-3-yl]-1H-indole]
24 | 696 | 0.007 | 0.028 |  |  |  |  | O=C(c1cscn1)N1CCN(C2CN(C(=O)c3cc4ccn(-c5ccc(F)cc5)c4cc3F)C2)CC1 [Cpd 1069]
25 | 288 | < 0.005 | 0.088 |  |  |  |  | O=C(c1ccc(Oc2cc(C(F)(F)F)ccc2F)nc1)N1CC(N2CCN(C(=O)c3nccs3)CC2)C1 [Cpd 878]
26 | 838 | 0.011 | 0.005 |  |  |  |  | O=C(c1nccs1)N1CCN(C2CN(C(=O)c3sc4ccc(-c5ccc(C(F)(F)F)cc5)cc4c3F)C2)CC1 [Cpd 1092]
27 | 498 | 0.006 |  |  |  |  | 0.012 | O=C(c1cnc2c(ccn2-c2ccc(F)cc2)c1)N1CC(N2CCN(C(=O)c3nccs3)CC2)C1 [Cpd 1056]
28 | 312 | 0.007 |  |  | 0.0067 |  |  | COc1cc(C(=O)N2CC(N3CCN(C(=O)c4cscn4)CC3)C2)ccc1-c1cccc(C(F)(F)F)c1 [Cpd 248, 1-(1-{[2-Methoxy-3′-(trifluoromethyl)biphenyl-4-yl]carbonyl}azetidin-3-yl)-4-(1,3-thiazol-4-ylcarbonyl)piperazine]
29 | 475 | < 0.005 | 0.1 |  |  |  |  | O=C(c1ccc(Oc2ccc(Br)cn2)cc1)N1CC(N2CCN(C(=O)c3nccs3)CC2)C1 [Cpd 877]
30 | 652 | < 0.005 | 0.072 |  |  |  |  | O=C(c1ccccc1)N1CCN(C2CN(C(=O)c3ccc(Cc4cccc(C(F)(F)F)c4)cc3)C2)CC1 [Cpd 547]
